Source: PMC7731314, “Tropinone-Derived Alkaloids as Potent Anticancer Agents: Synthesis, Tyrosinase Inhibition, Mechanism of Action, DFT Calculation, and Molecular Docking Studies” (International Journal of Molecular Sciences, 2020)
Like-named read-outs stand apart in the source and are kept apart here.

Legend:
[1] = test system: mouse skin melanoma (B16-F10) cell line; assay: MTT cell proliferation assay, B16-F10; format: cell-based; details: B16-F10, antiproliferative, MTT, 72 h, read-out: IC50 ± SD B16-F10
Source text: The influence of the tested compounds on the proliferation of melanoma B16F10 and breast MDA-MB-231 cells was estimated with the MTT assay as described previously. The cells counted using an automated cell counter (Countess® II FL, Invitrogen by Thermo Fisher Scientific Inc., Waltham, MA USA) and plated in 96-well plates (Nunc Edge 2F, Thermo Fisher Scientific Inc.) at a density of 0.1 × 10^4 and 0.2 × 10^4 per well, respectively. A total of twenty-four hours later, drugs were applied with final concentration: 5, 0.5, 0.05, and 0.005 μg/mL, and after an additional seventy-two hours MTT staining was performed as follows: twenty microliters of 5 mg/mL MTT solution and was added to each well of 96-well plate incubated for 2 h. Subsequently, the medium was removed and crystals of formazan were solubilized in pure isopropanol. Absorbance readout was conducted immediately using plate reader Multiskan Spectrum at 570 nm (Thermo Electron Corporation, Waltham, MA, USA). The background optical density was measured in the wells filled with culture medium, without the cells. The biological evaluation was performed as three independent experiments. The IC50 values were calculated using ED50plus v 1.0 freeware software and the mean response and standard deviation were calculated using Excel software. All of the chemicals were obtained from Sigma-Aldrich.

RPMI 8226 cells = assay: Annexin V-FITC/PI cell death by flow cytometry, RPMI 8226; format: cell-based, human; details: for IC50: Homo sapiens, read-out: IC50 for apoptosis (concentration inducing apoptosis in 50% of cells)
Description: (§1) The quantitative analysis of compound 3a-induced cell death was performed using an Annexin V-fluorescein isothiocyanate (FITC)/propidium iodide (PI) apoptosis kit (BD Biosciences, BD Pharmingen™, San Jose, CA, USA) as previously described. Briefly, the RPMI 8226 or A549 cells growing on the 6-well plates in the culture medium with 2% FBS were subjected to increasing concentrations of compound 3a (2.5, 5, 10, 20, or 40 μM) for 24 and 48 h. After the treatment, the cells were harvested, centrifuged at 1000 rpm and room temperature (RT) for 5 min, washed twice with PBS, and stained with […] of AnnexinV-FITC and […] of PI. After incubation for 15 min in the dark at room temperature, the cells were immediately analyzed using FACS Calibur. The intensity of fluorescence of AnnexinV-FITC and PI stained cells was determined by acquisition of at least 10,000 events per sample within the rate >60 events/s. The FACS data were analyzed using Cell Quest Pro Version 6.0. for the Macintosh operating system. The data were analyzed to determine the percentage of viable, early apoptotic, late apoptotic, and necrotic cells.

mushroom tyrosinase = mushroom tyrosinase (Agaricus bisporus, UniProt C7FF04); assay: Kinetic analysis of the inhibition of tyrosinase (Lineweaver-Burk); format: biochemical; details: tyrosinase-catalyzed oxidation of L-DOPA
Sequence of mushroom tyrosinase (C7FF04 1-392): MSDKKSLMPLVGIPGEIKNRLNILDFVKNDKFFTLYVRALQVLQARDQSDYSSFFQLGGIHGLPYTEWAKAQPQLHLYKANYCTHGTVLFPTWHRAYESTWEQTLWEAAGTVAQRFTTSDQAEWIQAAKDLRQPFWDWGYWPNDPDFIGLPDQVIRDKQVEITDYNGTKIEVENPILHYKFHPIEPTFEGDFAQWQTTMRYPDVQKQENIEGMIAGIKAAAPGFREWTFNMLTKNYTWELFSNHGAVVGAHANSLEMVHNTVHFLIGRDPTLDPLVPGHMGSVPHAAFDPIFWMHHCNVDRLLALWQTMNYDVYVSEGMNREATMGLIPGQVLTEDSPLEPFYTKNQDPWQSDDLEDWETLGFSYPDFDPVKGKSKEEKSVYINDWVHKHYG
Description: To understand the mechanism of mushroom tyrosinase inhibition by new compounds 3a–3h, enzyme inhibition kinetic studies were performed. The mechanism of tyrosinase inhibition was determined using Lineweaver–Burk plot, which is a useful graphical method for analysis of the Michaelis–Menten equations used to determine the inhibition constant […].
A series of experiments were performed to determine the inhibition kinetics of compounds by following the already reported method. The inhibitor concentrations for compounds were 50 and 100 µM. Substrate L-DOPA concentration was between 100 and 250 µM in all kinetic studies. Maximal initial velocity was determined from the initial linear portion of absorbance up to ten minutes after addition of enzyme. The inhibition type of the enzyme, Michaelis constant (KM) and maximal velocity (Vmax) were determined by Lineweaver–Burk plots of inverse of velocities (1/V) versus inverse of substrate concentration 1/[L-DOPA] mM^−1.

A549 cells = assay: Annexin V-FITC/PI cell death by flow cytometry, A549; format: cell-based, human; details: for IC50: Homo sapiens, read-out: IC50 for apoptosis
Description: as §1

CN1C2CCC1CC(=NNc1nc(-c3ccc(I)cc3)cs1)C2 [Compound 3a, 4-(4-Iodophenyl)-2-(2-(8-methyl-8-azabicyclo[3.2.1]octan-3-ylidene)hydrazinyl)thiazole]
IC50 [1]: 1.51 ± 0.14 µM
IC50 (RPMI 8226 cells; RPMI 8226, 24 h): 14.6 µM
IC50 (RPMI 8226 cells; RPMI 8226, 48 h): 7.91 µM
Apoptosis (early + late) (RPMI 8226 cells; RPMI 8226, 2.5 µM, 24 hours): 19.53 ± 2.64 % of cells ± SD
Necrosis (RPMI 8226 cells; RPMI 8226, 2.5 µM, 24 hours): 3.62 ± 0.87 % of cells ± SD
Apoptosis (early + late) (RPMI 8226 cells; RPMI 8226, 2.5 µM, 48 hours): 20.93 ± 1.83 % of cells ± SD
Necrosis (RPMI 8226 cells; RPMI 8226, 2.5 µM, 48 hours): 5.54 ± 0.44 % of cells ± SD
Apoptosis (early + late) (RPMI 8226 cells; RPMI 8226, 5 µM, 24 hours): 22.23 ± 6.01 % of cells ± SD
Necrosis (RPMI 8226 cells; RPMI 8226, 5 µM, 24 hours): 6.35 ± 2.57 % of cells ± SD
Apoptosis (early + late) (RPMI 8226 cells; RPMI 8226, 5 µM, 48 hours): 31.71 ± 11.36 % of cells ± SD
Necrosis (RPMI 8226 cells; RPMI 8226, 5 µM, 48 hours): 7.53 ± 2.61 % of cells ± SD
Apoptosis (early + late) (RPMI 8226 cells; RPMI 8226, 10 µM, 24 hours): 39.58 ± 9.33 % of cells ± SD
Necrosis (RPMI 8226 cells; RPMI 8226, 10 µM, 24 hours): 9.94 ± 2.73 % of cells ± SD
Apoptosis (early + late) (RPMI 8226 cells; RPMI 8226, 10 µM, 48 hours): 58.25 ± 21.57 % of cells ± SD
Necrosis (RPMI 8226 cells; RPMI 8226, 10 µM, 48 hours): 11.08 ± 5.38 % of cells ± SD
Apoptosis (early + late) (RPMI 8226 cells; RPMI 8226, 20 µM, 24 hours): 60.41 ± 0.99 % of cells ± SD
Necrosis (RPMI 8226 cells; RPMI 8226, 20 µM, 24 hours): 18.5 ± 2.38 % of cells ± SD
Apoptosis (early + late) (RPMI 8226 cells; RPMI 8226, 20 µM, 48 hours): 76.93 ± 14.34 % of cells ± SD
Necrosis (RPMI 8226 cells; RPMI 8226, 20 µM, 48 hours): 20.18 ± 11.99 % of cells ± SD
Inhibitory Mechanism (mushroom tyrosinase): mixed
Apoptosis (early + late) (A549 cells; A549, 2.5 µM, 24 hours): 14.30±2.21 % of cells ± SD
Necrosis (A549 cells; A549, 2.5 µM, 24 hours): 4.79±1.14 % of cells ± SD
Apoptosis (early + late) (A549 cells; A549, 2.5 µM, 48 hours): 18.41±3.95 % of cells ± SD
Necrosis (A549 cells; A549, 2.5 µM, 48 hours): 4.11±1.44 % of cells ± SD
Apoptosis (early + late) (A549 cells; A549, 5 µM, 24 hours): 14.82±2.42 % of cells ± SD
Necrosis (A549 cells; A549, 5 µM, 24 hours): 4.40±1.66 % of cells ± SD
Apoptosis (early + late) (A549 cells; A549, 5 µM, 48 hours): 22.48±8.36 % of cells ± SD
Necrosis (A549 cells; A549, 5 µM, 48 hours): 4.93±4.26 % of cells ± SD
Apoptosis (early + late) (A549 cells; A549, 10 µM, 24 hours): 18.18±2.52 % of cells ± SD
Necrosis (A549 cells; A549, 10 µM, 24 hours): 4.87±1.35 % of cells ± SD
Apoptosis (early + late) (A549 cells; A549, 10 µM, 48 hours): 27.17±11.71 % of cells ± SD
Necrosis (A549 cells; A549, 10 µM, 48 hours): 4.09±2.58 % of cells ± SD
Apoptosis (early + late) (A549 cells; A549, 20 µM, 24 hours): 23.43±4.57 % of cells ± SD
Necrosis (A549 cells; A549, 20 µM, 24 hours): 4.56±1.90 % of cells ± SD
Apoptosis (early + late) (A549 cells; A549, 20 µM, 48 hours): 40.20±9.87 % of cells ± SD
Necrosis (A549 cells; A549, 20 µM, 48 hours): 4.87±3.04 % of cells ± SD
Apoptosis (early + late) (A549 cells; A549, 40 µM, 24 hours): 73.96±19.94 % of cells ± SD
Necrosis (A549 cells; A549, 40 µM, 24 hours): 7.89±1.10 % of cells ± SD
Apoptosis (early + late) (A549 cells; A549, 40 µM, 48 hours): 89.43±6.65 % of cells ± SD
Necrosis (A549 cells; A549, 40 µM, 48 hours): 8.81±6.51 % of cells ± SD
Necrosis induction (A549 cells; A549, up to highest concentration 40 µM): did not induce necrosis
IC50 (A549 cells; A549, 24 h): 27.7 µM
IC50 (A549 cells; A549, 48 h): 17.4 µM
